Experimental data taken from patent US11247990B1, “Bicyclic fused pyridine compounds as inhibitors of TAM kinases” (ARRAY BIOPHARMA INC., priority 2017, dated 2022).

Assays:
Details in all cases: averaged IC50
[1] = target: GST-tagged recombinant human TYRO3 kinase domain (Homo sapiens (Human), UniProt Q06418); test: TYRO3 Enzyme Assay (LanthaScreen Eu Kinase Binding, TR-FRET)
Summary of the method: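 LanthaScreen Eu binding (tracer displacement) format read by TR-FRET after 60 min at 22 °C. Emission ratio converted to percent of control; IC50 taken where a 4-parameter logistic fit crosses 50 POC.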

[2] = target: His-tagged recombinant human MER cytoplasmic domain (Homo sapiens (Human), UniProt Q12866); test: MER Enzyme Assay (LanthaScreen Eu Kinase Binding, TR-FRET)
Chain of His-tagged recombinant human MER cytoplasmic domain (Q12866 527-999): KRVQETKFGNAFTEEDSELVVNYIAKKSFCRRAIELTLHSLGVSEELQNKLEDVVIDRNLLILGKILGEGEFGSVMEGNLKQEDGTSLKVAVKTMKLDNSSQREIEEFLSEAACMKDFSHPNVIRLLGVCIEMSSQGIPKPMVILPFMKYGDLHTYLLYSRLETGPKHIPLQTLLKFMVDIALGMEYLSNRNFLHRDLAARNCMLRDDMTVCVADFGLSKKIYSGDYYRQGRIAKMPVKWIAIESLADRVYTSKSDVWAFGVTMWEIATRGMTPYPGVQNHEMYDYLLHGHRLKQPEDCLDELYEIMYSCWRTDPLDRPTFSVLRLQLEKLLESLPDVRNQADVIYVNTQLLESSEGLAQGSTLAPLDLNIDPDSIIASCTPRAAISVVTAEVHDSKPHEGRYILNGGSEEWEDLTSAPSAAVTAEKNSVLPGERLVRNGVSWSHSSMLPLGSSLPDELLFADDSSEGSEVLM
Summary of the method: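 LanthaScreen Eu kinase binding (tracer displacement) assay with His-tagged human MER cytoplasmic domain, 60 min incubation at 22 °C. TR-FRET dual-wavelength emission ratio converted to percent of control; IC50 is where the 4-parameter logistic fit crosses 50 POC.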

[3] = target: His-tagged recombinant human AXL cytoplasmic domain (Homo sapiens (Human), UniProt P30530); test: AXL Enzyme Assay (LanthaScreen Eu Kinase Binding, TR-FRET)
Chain of His-tagged recombinant human AXL cytoplasmic domain (P30530 473-894): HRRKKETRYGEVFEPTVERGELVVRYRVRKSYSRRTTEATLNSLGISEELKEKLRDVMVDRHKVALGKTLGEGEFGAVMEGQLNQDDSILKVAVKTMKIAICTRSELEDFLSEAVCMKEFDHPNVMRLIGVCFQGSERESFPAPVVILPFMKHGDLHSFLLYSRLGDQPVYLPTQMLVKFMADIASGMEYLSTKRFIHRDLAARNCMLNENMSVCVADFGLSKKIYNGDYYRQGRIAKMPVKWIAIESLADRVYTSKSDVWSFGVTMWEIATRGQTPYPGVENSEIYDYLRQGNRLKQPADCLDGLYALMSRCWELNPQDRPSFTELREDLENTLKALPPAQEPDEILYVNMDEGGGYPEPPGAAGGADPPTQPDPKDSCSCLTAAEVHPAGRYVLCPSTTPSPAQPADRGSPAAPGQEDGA
Summary of the method: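 LanthaScreen Eu kinase binding format, incubated 60 min at 22 °C and read by TR-FRET dual-wavelength emission ratio as percent of control. IC50 taken where a 4-parameter logistic fit crosses 50 POC.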

Chain of GST-tagged recombinant human TYRO3 kinase domain (Q06418 518-790): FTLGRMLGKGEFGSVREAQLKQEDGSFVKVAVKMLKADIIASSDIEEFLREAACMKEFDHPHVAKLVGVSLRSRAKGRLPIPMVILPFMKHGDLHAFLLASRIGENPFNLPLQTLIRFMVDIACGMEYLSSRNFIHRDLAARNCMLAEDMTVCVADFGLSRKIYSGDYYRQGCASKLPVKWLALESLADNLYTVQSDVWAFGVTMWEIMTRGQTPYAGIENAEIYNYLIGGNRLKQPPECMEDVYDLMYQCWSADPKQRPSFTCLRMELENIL

Compound	IC50 [1] [nM]	IC50 [2] [nM]	IC50 [3] [nM]
CCNc1cc2c(cn1)c(-c1ccc(CN3CCN(C)CC3)cc1)nn2[C@H]1CC[C@@H](Oc2nccc(C(F)(F)F)c2F)CC1 [Example 261, N-ethyl-1-((1s,4s)-4-((3-fluoro-4-(tnfluoromethyl)pyridin-2-yl)oxy)cyclohexyl)-3-(4-((4-methylpiperazin-1-yl)methyl)phenyl)-1H-pyrazolo[4,3-c]pyridin-6-amine]	10 to 100	< 10	< 10
CCNc1cc2c(cn1)c(-c1cnn(C[C@H](O)C(C)(C)O)c1)nn2[C@H]1CC[C@@H](Oc2ccccc2F)CC1 [Example 440, (S)-1-(4-(6-(ethylamino)-1-((1s,4R)-4-(2-fluorophenoxy)cyclohexyl)-1H-pyrazolo[4,3-c]pyridin-3-yl)-1H-pyrazol-1-yl)-3-methylbutane-2,3-dioI]	10 to 100	< 10	< 10
CCNc1cc2c(cn1)c(-c1cnn(C)c1)nn2[C@H]1CC[C@@H](Oc2cccnc2F)CC1 [Example 183, N-ethyl-1-((1s,4s)-4-((2-fluoropyridin-3-yl)oxy)cyclohexyl)-3-(1-methyl-1H-pyrazol-4-yl)-1H-pyrazolo[4,3-c]pyridin-6-amine]	< 10	< 10	< 10
CCNc1cc2c(cn1)c(N1CCC(NC)CC1)nn2[C@H]1CC[C@@H](Oc2nccc(C(F)(F)F)c2F)CC1 [Example 344, N-ethyl-1-((1s,4s)-4((3-fluoro-4-(trifluoromethyl)pyridin-2-yl)oxy)cyclohexyl)-3-(4-(methylamino)piperidin-1-yl)-1H-pyrazolo[4,3-c]pyridin-6-amine]	10 to 100	< 10	< 10
CNc1cc2c(cn1)c(-c1cnn(C(C)(C)C#N)c1)nn2[C@H]1CC[C@@H](Oc2nccnc2C)CC1 [Example 212, 2-methyl-2-(4-(6-(methylamino)-1-((1s,4s)-4-((3-methylpyrazin-2-yl)oxy)cyclohexyl)-1H-pyrazolo[4,3-c]pyridin-3-yl)-1H-pyrazol-1-yl)propanenitrile]	10 to 100	< 10	< 10
CNc1cc2c(cn1)c(-c1cnn(C)c1)nn2[C@H]1CC[C@@H](Oc2ccccc2)[C@H](O)C1 [Example 471B, (1R,2R,5S)-5-(3-(1-methyl-1H-pyrazol-4-yl)-6-(methylamino)-1H-pyrazolo[4,3-c]pyridin-1-yl)-2-phenoxycyclohexan-1-ol]	10 to 100	< 10	< 10
CCNc1cc2c(cn1)c(N1CC3COCC3C1)nn2[C@H]1CC[C@@H](Oc2nccc(C(F)(F)F)c2F)CC1 (stereo partly drawn) [Example 342, N-ethyl-1-((1s,4s)-4((3-fluoro-4-(trifluoromethyl)pyridin-2-yl)oxy)cyclohexyl)-3-(tetrahydro-1H-furo[3,4-c]pyrrol-5(3H)-yl)-1H-pyrazolo[4,3-c]pyridin-6-amine]	10 to 100	< 10	< 10
CCNc1cc2c(cn1)c(-c1cnn(C[C@@H](O)C(C)(C)O)c1)nn2[C@H]1CC[C@@H](Oc2ccc(F)cc2F)CC1 [Example 447, (R)-1-(4-(1-((1s,4S)-4-(2,4-difluorophenoxy)cyclohexyl)-6-(ethylamino)-1H-pyrazolo[4,3-c]pyridin-3-yl)-1H-pyrazol-1-yl)-3-methylbutane-2,3-diol]	10 to 100	< 10	< 10
CCNc1cc2c(cn1)c(-c1cnn(C[C@@H](O)CO)c1)nn2[C@H]1CC[C@@H](Oc2cccc(F)c2Cl)CC1 [Example 437, (R)-3-(4-(1-((1s,4S)-4-(2-chloro-3-fluorophenoxy)cyclohexyl)-6-(ethylamino)-1H-pyrazolo[4,3-c]pyridin-3-yl)-1H-pyrazol-1-yl)propane-1,2-diol]	10 to 100	< 10	< 10
Cn1cc(-c2nn([C@H]3CC[C@@H](Oc4ccc(=O)n(C)n4)CC3)c3cc(N)ncc23)cn1 [Example 75, 6-(((1s,4s)-4-(6-amino-3-(1-methyl-1H-pyrazol-4-yl)-1H-pyrazolo[4,3-c]pyridin-1-yl)cyclohexyl)oxy)-2-methylpyridazin-3(2H)-one]	1000 to 10000	1000 to 10000	1000 to 10000
CCNc1cc2c(cn1)c(N1CC[C@@H](O)C1)nn2[C@H]1CC[C@@H](Oc2nccc(C(F)(F)F)c2F)CC1 [Example 488, (R)-1-(6-(ethylamino)-1-((1s,4S)-4-((3-fluoro-4-(trifluoromethyl)pyridin-2-yl)oxy)cyclohexyl)-1H-pyrazolo[4,3-c]pyridin-3-yl)pyrrolidin-3-ol]	10 to 100	< 10	< 10
CCNc1cc2c(cn1)c(C1CCCN(C)C1)nn2[C@H]1CC[C@@H](Oc2nccc(C(F)(F)F)c2F)CC1 (stereo partly drawn) [Example 324, N-ethyl-1-((1s,4s)-4-((3-fluoro-4-(trifluoromethyl)pyridin-2-yl)oxy)cyclohexyl)-3-(1-methylpiperidin-3-yl)-1H-pyrazolo[4,3-c]pyridin-6-amine]	10 to 100	< 10	< 10
CNc1cc2c(cn1)c(-c1cnn(C(CO)CO)c1)nn2[C@H]1CC[C@@H](Oc2ccc(F)cc2)CC1 [Example 410, 2-(4-(1-((1s,4s)-4-(4-fluorophenoxy)cyclohexyl)-6-(methylamino)-1H-pyrazolo[4,3-c]pyridin-3-yl)-1H-pyrazol-1-yl)propane-1,3-diol]	10 to 100	< 10	< 10
CCNc1cc2c(cn1)c(C1CCN(C(C)C)CC1)nn2[C@H]1CC[C@@H](Oc2nccc(C(F)(F)F)c2F)CC1 [Example 326, N-ethyl-1-((1s,4s)-4-((3-fluoro-4-(trifluoromethyl)pyridin-2-yl)oxy)cyclohexyl)-3-(1-isopropylpiperidin-4-yl)-1H-pyrazolo[4,3-c]pyridin-6-amine]	10 to 100	< 10	< 10
CCNc1cc2c(cn1)c(-c1cnn(C[C@@H](O)CO)c1)nn2[C@H]1CC[C@@H](Oc2cn(C)nc2C(F)(F)F)CC1 [Example 283, ®-3-(4-(6-(ethylamino)-1-((1s,4S)-4-((1-methyl-3-(trifluoromethyl)-1H-pyrazol-4-yl)oxy)cyclohexyl)-1H-pyrazolo[4,3-c]pyridin-3-yl)-1H-pyrazol-1-yl)propane-1,2-diol]	< 10	< 10	< 10
CCNc1cc2c(cn1)c(-c1cnn(C[C@@H](O)CO)c1)nn2[C@H]1CC[C@@H](Oc2cccc(Cl)c2Cl)CC1 [Example 439]	10 to 100	< 10	< 10
CNc1cc2c(cn1)c(-c1ccc3c(c1)CNC3=O)nn2[C@H]1CC[C@@H](Oc2cccnc2C(F)(F)F)CC1 [Example 218, 5-(6-(methylamino)-1-((1s,4s)-4-((2-(trifluoromethyl)pyridin-3-yl)oxy)cyclohexyl)-1H-pyrazolo[4,3-c]pyridin-3-yl)isoindolin-1-one]	< 10	< 10	< 10
CNc1cc2c(cn1)c(-c1cnn(C)c1)nn2[C@@H]1CC[C@H](Oc2ccccc2)[C@@H](O)C1 (racemic) [Example 470, Racemic-(1S,2S,5R)-5-(3-(1-methyl-1H-pyrazol-4-yl)-6-(methylamino)-1H-pyrazolo[4,3-c]pyridin-1-yl)-2-phenoxycyclohexan-1-ol]	10 to 100	< 10	< 10
CCNc1cc2c(cn1)c(C1CCN(C)CC1)nn2[C@H]1CC[C@@H](Oc2cn[nH]c2C(F)(F)F)CC1 [Example 313, N-ethyl-3-(1-methylpiperidin-4-yl)-1-((1s,4s)-4-((5-(trifluoromethyl)-1H-pyrazol-4-yl)oxy)cyclohexyl)-1H-pyrazolo[4,3-c]pyridin-6-amine]	< 10	< 10	< 10
CCNc1cc2c(cn1)c(-c1cnn(C[C@@H](O)CO)c1)nn2[C@H]1CC[C@@H](Oc2nccc(C#N)c2F)CC1 [Example 487, 2-(((1S,4s)-4-(3-(1-((R)-2,3-dihydroxypropyl)-1H-pyrazol-4-yl)-6-(ethylamino)-1H-pyrazolo[4,3-c]pyridin-1-yl)cyclohexyl)oxy)-3-fluoroisonicotinonitrile]	< 10	< 10	< 10
CNc1cc2c(cn1)c(-c1cnn(C)c1)nn2[C@H]1CC[C@@H](Oc2cccnc2C(C)C)CC1 [Example 165, 1-((1 s,4s)-4-((2-isopropylpyridin-3-yl)oxy)cyclohexyl)-N-methyl(1-methyl-1H-pyrazol-4-yl)-1H-pyrazolo[4,3-c]pyridin-6-amine]	10 to 100	< 10	< 10
CCNc1cc2c(cn1)c(N1CCC(N3CCN(C)CC3)CC1)nn2[C@H]1CC[C@@H](Oc2nccc(C(F)(F)F)c2F)CC1 [Example 489, N-ethyl-1-((1s,4s)-4((3-fluoro-4-(trifluoromethyl)pyridin-2-yl)oxy)cyclohexyl)-3-(4-(4-methylpiperazin-1-yl)piperidin-1-yl)-1H-pyrazolo[4,3-c]pyridin-6-amine]	10 to 100	< 10	< 10
CCNc1cc2c(cn1)c(N1CCNCC1)nn2[C@H]1CC[C@@H](Oc2cccc(C(F)(F)F)c2F)CC1 [Example 490, N-ethyl-1-((1s,4s)-4-(2-fluoro-3-(trifluoromethyl)phenoxy)cyclohexyl)-3-(piperazin-1-yl)-1H-pyrazolo[4,3-c]pyridin-6-amine]	< 10	< 10	< 10
